In patent US9920010B2, “CXCR7 receptor modulators” (IDORSIA PHARMACEUTICALS LTD, priority 2013, dated 2018):

The molecules below were run against T1, CXCR7 (Homo sapiens, UniProt P25106) (assay: PathHunter CHO-K1 CXCR7 b-arrestin recruitment assay (CXCR7 agonistic activity)). Conditions: PathHunter CHO-K1 CXCR7 b-arrestin cell line.
T1 construct: host or cells: CHO-K1 (PathHunter CHO-K1 CXCR7 b-arrestin cell line, stably transfected)
Format: cell-based
Procedure, shortened: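 Stable CHO-K1 line with C-terminally ProLink-tagged CXCR7 and β-arrestin 2–EA fusion; β-arrestin recruitment restores β-gal activity, read by chemiluminescence after 1 h RT detection. Cells seeded 24 h, starved in OPTIMEM 3–4 h, exposed to compounds 90 min at 37 °C in HBSS/HEPES/BSA. Geometric-mean EC50 from repeated measurements.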

T1 sequence (P25106 whole entry): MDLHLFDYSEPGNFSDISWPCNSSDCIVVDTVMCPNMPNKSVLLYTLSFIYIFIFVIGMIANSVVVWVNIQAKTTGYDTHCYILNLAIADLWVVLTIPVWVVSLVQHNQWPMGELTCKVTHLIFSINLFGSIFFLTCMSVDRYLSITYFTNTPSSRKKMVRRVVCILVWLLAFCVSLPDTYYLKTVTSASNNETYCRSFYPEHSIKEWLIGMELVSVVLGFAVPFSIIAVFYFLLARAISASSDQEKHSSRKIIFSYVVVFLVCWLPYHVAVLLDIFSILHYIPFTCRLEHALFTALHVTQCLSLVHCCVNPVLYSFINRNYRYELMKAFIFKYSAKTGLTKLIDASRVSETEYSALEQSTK
T1 sequence (P32121 whole entry partner): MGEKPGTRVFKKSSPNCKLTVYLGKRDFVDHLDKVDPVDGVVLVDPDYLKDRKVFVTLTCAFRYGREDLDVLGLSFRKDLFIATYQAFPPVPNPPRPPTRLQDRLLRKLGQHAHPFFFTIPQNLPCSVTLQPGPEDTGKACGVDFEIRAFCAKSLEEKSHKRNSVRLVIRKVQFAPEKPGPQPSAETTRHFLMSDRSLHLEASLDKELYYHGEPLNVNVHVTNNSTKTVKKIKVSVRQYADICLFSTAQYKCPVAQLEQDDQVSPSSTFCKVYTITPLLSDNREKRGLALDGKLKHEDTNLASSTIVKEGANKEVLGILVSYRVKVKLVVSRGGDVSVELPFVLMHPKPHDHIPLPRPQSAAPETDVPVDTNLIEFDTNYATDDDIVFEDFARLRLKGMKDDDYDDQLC

| Structure (SMILES) | EC50 [nM] |
| --- | --- |
| O=C(CNc1cccc2c1CCN(CC1CC1)C2)N(Cc1ccccc1C(F)(F)F)CC(O)C(F)(F)F (racemic) [Example 242, rac-2-(2-Cyclopropylmethyl-1,2,3,4-tetrahydro-isoquinolin-5-ylamino)-N-(3,3,3-trifluoro-2-hydroxy-propyl)-N-(2-trifluoromethyl-benzyl)-acetamide] | 24 |
| CC(C)CN1CCc2c(cccc2NCC(=O)N(CCN(C)C)Cc2ccccc2)C1 [compound 112, N-Benzyl-N-(2-dimethylamino-ethyl)-2-(2-isobutyl-1,2,3,4-tetrahydro-isoquinolin-5-ylamino)-acetamide] | 40 |
| CNCCN(Cc1ccccc1Cl)C(=O)CNc1cccc2c1CCN(CC1CC1)C2 [compound 446, N-(2-Chloro-benzyl)-2-(2-cyclopropylmethyl-1,2,3,4-tetrahydro-isoquinolin-5-ylamino)-N-(2-methylamino-ethyl)-acetamide] | 4 |
| COCCN1CCc2c(CCC(=O)N(Cc3ncccc3Cl)CC(C)(C)O)cccc2C1 [Example 347, N-(3-Chloro-pyridin-2-ylmethyl)-N-(2-hydroxy-2-methyl-propyl)-3-[2-(2-methoxy-ethyl)-1,2,3,4-tetrahydro-isoquinolin-5-yl]-propionamide] | 445 |
| CCCC(=O)N1CCc2c(cccc2NCC(=O)N(CCNC)Cc2ncccc2C(F)(F)F)C1 [compound 411, 2-(2-Butyryl-1,2,3,4-tetrahydro-isoquinolin-5-ylamino)-N-(2-methylamino-ethyl)-N-(3-trifluoromethyl-pyridin-2-ylmethyl)-acetamide] | 15 |
| CN(CCN(Cc1ccccc1C(F)(F)F)C(=O)CNc1cccc2c1CCN(CC1CC1)C2)CC(F)(F)F [Example 278, 2-(2-Cyclopropylmethyl-1,2,3,4-tetrahydro-isoquinolin-5-ylamino)-N-{2-[methyl-(2,2,2-trifluoro-ethyl)-amino]-ethyl}-N-(2-trifluoromethyl-benzyl)-acetamide] | 79 |
| CN1CCCC1CCN(C/C=C/c1ccccc1)C(=O)CNc1cccc2c1CCN(CC1CC1)C2 (racemic) [Example 53, rac-2-(2-Cyclopropylmethyl-1,2,3,4-tetrahydro-isoquinolin-5-ylamino)-N-[2-(1-methyl-pyrrolidin-2-yl)-ethyl]-N-((E)-3-phenyl-allyl)-acetamide] | 23 |
| COCCN1CCc2c(/C=C/C(=O)N(Cc3ccccc3C(F)(F)F)CC(O)COC)cccc2C1 (centres unmarked) [Example 321, (E)-N-(2-Hydroxy-3-methoxy-propyl)-3-[2-(2-methoxy-ethyl}-1,2,3,4-tetrahydro-isoquinolin-5-yl]-N-(2-trifluoromethyl-benzyl)-acrylamide] | 244 |
| CCCOC(=O)N1CCc2c(cccc2NCC(=O)N(CCNC)Cc2ccccc2C(F)(F)F)C1 [compound 398] | 82 |
| CCN1CCc2cccc(NCC(=O)N(CCN(C)C)Cc3cncc(Cl)c3)c2C1 [compound 533] | 359 |
| CN(C)CCN(Cc1ncccc1C(F)(F)F)C(=O)CNc1cccc2c1CN(CC1CC1)CC2 [compound 566, 2-(2-Cyclopropylmethyl-1,2,3,4-tetrahydro-isoquinolin-8-ylamino)-N-(2-dimethylamino-ethyl)-N-(3-trifluoromethyl-pyridin-2-ylmethyl)-acetamide] | 3 |
| CC(C)CCN(Cc1ccccc1)C(=O)CNc1cccc2c1CCN(C(=O)OC(C)(C)C)C2 [Example 9, 5-({[Benzyl-(3-methyl-butyl)-carbamoyl]-methyl}-amino)-3,4-dihydro-1H-isoquinoline-2-carboxylic acid tert-butyl ester] | 451 |
| CN(C)CCN(Cc1ccccc1Cl)C(=O)CNc1cccc2c1CCN(CC1CC1)C2 [compound 134, N-(2-Chloro-benzyl)-2-(2-cyclopropylmethyl-1,2,3,4-tetrahydro-isoquinolin-5-ylamino)-N-(2-dimethylamino-ethyl)-acetamide] | 2 |
| CCN1CCc2cccc(NCC(=O)N(CCC(C)C)Cc3ccccc3C(F)(F)F)c2C1 [compound 513] | 377 |
